Laboratory results from patent US9018258B2, “Substituted 1-benzylcycloalkylcarboxylic acids and the use thereof” (Bayer Intellectual Property GmbH, priority 2010, dated 2015).

Experiments:
[1] = target: T1, Haem-containing sGC (Rattus norvegicus, UniProt P20595); assay: Stimulation of recombinant soluble guanylate cyclase (sGC) in vitro, haem-containing enzyme; type: biochemical
T1 construct: made in house; host or cells: Sf9 insect cells (baculovirus)
Description: Hoenicka, E. M. Becker, H. Apeler, T. Sirichoke, H. Schroeder, R. Gerzer and J.-P. Stasch, “Purified soluble guanylyl cyclase expressed in a baculovirus/Sf9 system: Stimulation by YC-1, nitric oxide, and carbon oxide”, J. Mol. Med. 77 (1999), 14-23. The haem-free guanylate cyclase is obtained by adding Tween 20 to the sample buffer (0.5% in the final concentration).
(§1) The activation of sGC by a test substance is reported as x-fold stimulation of the basal activity.

[2] = target: T2, Haem-free sGC (Rattus norvegicus, UniProt P20595); assay: Stimulation of recombinant soluble guanylate cyclase (sGC) in vitro, haem-free enzyme; type: biochemical
T2 construct: made in house; host or cells: Sf9 insect cells (baculovirus)
T2 sequence (P19686 whole entry partner): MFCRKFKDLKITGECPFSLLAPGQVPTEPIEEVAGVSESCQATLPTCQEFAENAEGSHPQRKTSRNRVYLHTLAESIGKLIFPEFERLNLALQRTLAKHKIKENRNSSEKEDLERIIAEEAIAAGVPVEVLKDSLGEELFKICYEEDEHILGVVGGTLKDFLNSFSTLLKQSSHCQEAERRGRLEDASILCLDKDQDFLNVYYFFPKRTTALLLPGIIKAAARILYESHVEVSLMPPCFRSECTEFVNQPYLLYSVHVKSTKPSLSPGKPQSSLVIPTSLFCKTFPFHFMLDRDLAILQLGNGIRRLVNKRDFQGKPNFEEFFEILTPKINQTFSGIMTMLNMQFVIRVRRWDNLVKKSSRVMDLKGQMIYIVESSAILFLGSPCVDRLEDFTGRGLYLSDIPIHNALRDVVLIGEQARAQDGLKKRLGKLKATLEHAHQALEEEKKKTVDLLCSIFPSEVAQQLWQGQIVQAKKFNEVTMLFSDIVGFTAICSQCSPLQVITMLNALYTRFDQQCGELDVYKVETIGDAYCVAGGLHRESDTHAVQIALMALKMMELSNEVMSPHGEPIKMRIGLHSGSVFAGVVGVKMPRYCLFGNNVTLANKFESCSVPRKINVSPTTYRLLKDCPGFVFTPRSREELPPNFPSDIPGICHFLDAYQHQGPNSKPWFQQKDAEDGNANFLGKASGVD
T2 sequence (P20595 whole entry): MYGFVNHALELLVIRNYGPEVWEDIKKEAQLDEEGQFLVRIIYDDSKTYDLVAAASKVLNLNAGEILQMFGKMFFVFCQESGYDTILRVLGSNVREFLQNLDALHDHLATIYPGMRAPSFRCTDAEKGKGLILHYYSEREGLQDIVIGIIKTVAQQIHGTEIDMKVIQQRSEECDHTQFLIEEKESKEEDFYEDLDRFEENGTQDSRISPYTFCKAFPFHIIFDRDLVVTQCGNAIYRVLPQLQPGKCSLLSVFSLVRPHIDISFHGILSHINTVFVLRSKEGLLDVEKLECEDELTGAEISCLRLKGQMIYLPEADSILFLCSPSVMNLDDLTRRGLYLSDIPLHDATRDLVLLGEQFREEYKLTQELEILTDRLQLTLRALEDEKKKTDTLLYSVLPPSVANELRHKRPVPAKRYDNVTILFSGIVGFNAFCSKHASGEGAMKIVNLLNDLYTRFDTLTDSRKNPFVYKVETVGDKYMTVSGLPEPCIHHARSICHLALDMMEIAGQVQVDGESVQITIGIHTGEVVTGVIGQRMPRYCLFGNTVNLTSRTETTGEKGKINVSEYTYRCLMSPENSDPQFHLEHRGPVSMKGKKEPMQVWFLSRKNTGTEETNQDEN
Description: Investigations on the stimulation of recombinant soluble guanylate cyclase (sGC) by the compounds according to the invention with and without sodium nitroprusside, and with and without the haem-dependent sGC inhibitor 1H-1,2,4-oxadiazolo[4,3a]quinoxalin-1-one (ODQ), are carried out by the method described in detail in the following reference: M. Hoenicka, E. M. Becker, H. Apeler, T. Sirichoke, H. Schroeder, R. Gerzer and J.-P. Stasch, “Purified soluble guanylyl cyclase expressed in a baculovirus/Sf9 system: Stimulation by YC-1, nitric oxide, and carbon oxide”, J. Mol. Med. 77 (1999), 14-23. The haem-free guanylate cyclase is obtained by adding Tween 20 to the sample buffer (0.5% in the final concentration).
as §1

T1 sequence (P19686 whole entry partner): as the sequence (P19686 whole entry partner) above
T1 sequence (P20595 whole entry): as the sequence (P20595 whole entry) above

Stimulation (x-fold) of recombinant sGC, +0.01 μM DEA/NO ([1]; test substance 0.01 μM) [x-fold]	Stimulation (x-fold) of recombinant sGC, +0.01 μM DEA/NO ([1]; test substance 0.1 μM) [x-fold]	Stimulation (x-fold) of recombinant sGC, +0.01 μM DEA/NO ([1]; test substance 1.0 μM) [x-fold]	Stimulation (x-fold) of recombinant sGC, +0.01 μM DEA/NO ([1]; test substance 10 μM) [x-fold]	Stimulation (x-fold) of recombinant sGC, +10 μM ODQ ([1]; test substance 0.01 μM) [x-fold]	Stimulation (x-fold) of recombinant sGC, +10 μM ODQ ([1]; test substance 0.1 μM) [x-fold]	Stimulation (x-fold) of recombinant sGC, +10 μM ODQ ([1]; test substance 1.0 μM) [x-fold]	Stimulation (x-fold) of recombinant sGC, +10 μM ODQ ([1]; test substance 10 μM) [x-fold]	Effect of combination with DEA/NO (NO donor) on sGC stimulation [1]	Stimulation (x-fold) of recombinant sGC, Basal ([1]; test substance 0.01 μM) [x-fold]	Stimulation (x-fold) of recombinant sGC, Basal ([1]; test substance 0.1 μM) [x-fold]	Stimulation (x-fold) of recombinant sGC, Basal ([1]; test substance 1.0 μM) [x-fold]	Stimulation (x-fold) of recombinant sGC, Basal ([1]; test substance 10 μM) [x-fold]	Stimulation (x-fold) of recombinant sGC, Basal ([2]; test substance 0.01 μM) [x-fold]	Stimulation (x-fold) of recombinant sGC, Basal ([2]; test substance 0.1 μM) [x-fold]	Stimulation (x-fold) of recombinant sGC, Basal ([2]; test substance 1.0 μM) [x-fold]	Stimulation (x-fold) of recombinant sGC, Basal ([2]; test substance 10 μM) [x-fold]	further results	SMILES
4.0 ± 0.6	4.4 ± 0.8	5.0 ± 1.7	5.3 ± 1.8	4.3 ± 0.4	5.7 ± 0.3	9.2 ± 0.9	10.3 ± 1.3	no synergistic effect	1.0 ± 0.0	1.5 ± 0.2	1.8 ± 0.3	2.6 ± 0.4	2.0 ± 0.4	5.2 ± 0.8	14.9 ± 2.2	19.4 ± 2.8		[2H]C([2H])([2H])OC(c1ccc(Cl)c(NC(=O)[C@H](c2ccc(Cl)cc2)[C@@H](C)C(F)(F)F)c1)C1(C(=O)O)CC1 (single isomer, unassigned; (+)) [Example 99]
7.5 ± 1.8	7.6 ± 1.8	9.0 ± 2.0	13.3 ± 2.2	9.2 ± 1.4	9.6 ± 1.5	12.7 ± 1.5	21.5 ± 2.2	no synergistic effect	1.4 ± 0.1	1.2 ± 0.1	2.6 ± 0.4	6.4 ± 0.6	2.6 ± 0.8	7.1 ± 2.4	27.2 ± 7.4	41.2 ± 9.8	Stimulation (x-fold) of recombinant sGC, +0.01 μM DEA/NO ([1]; test substance 100 μM): 14.6 ± 2.2 x-fold; Stimulation (x-fold) of recombinant sGC, +10 μM ODQ ([1]; test substance 100 μM): 22.6 ± 2.6 x-fold; Stimulation (x-fold) of recombinant sGC, Basal ([1]; test substance 100 μM): 9.5 ± 0.9 x-fold; Stimulation (x-fold) of recombinant sGC, Basal ([2]; test substance 100 μM): 39.0 ± 9.1 x-fold	C[C@H]([C@H](C(=O)Nc1cc(CC2(C(=O)O)CC2)ccc1Cl)c1ccc(Cl)cc1)C(F)(F)F [Example 50, (+)-1-(4-Chloro-3-{[(2S,3R)-2-(4-chlorophenyl)-4,4,4-trifluoro-3-methylbutanoyl]amino}benzyl)-cyclopropanecarboxylic acid]
